This is an account of results in PubChem BioAssay (NCI).

Common to all, as to assay: NCI-60 cell line screen, 48 h
Assay [1] relates to ACHN renal.
Assay [2] relates to NCI-H226 lung.
In assay [3] the test system is NCI-H522 lung.
Assay [4] deals with RXF 393 renal.
For assay [5], the system named is MDA-N.
Assay [6] relates to CCRF-CEM leukemia.
Assay [7] deals with MALME-3M melanoma.
Assay [8] concerns PC-3 prostate.
In assay [9] the test system is MDA-MB-231 breast.
Assay [10] has as its system T-47D breast.
Assay [11] has as its system HCC-2998 colon.
The test system of assay [12] is SN12K1 renal.
Assay [13] has as its system M19-MEL melanoma.
In assay [14] the test system is KM20L2 colon.
Assay [15] relates to HOP-18 NSCLC.
For assay [16], the system named is DMS 114 small cell lung.

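48-hour exposure; five concentrations; linearly interpolated endpoints. Abbreviation: GI50, concentration required for 50% inhibition of growth. TGI denotes the concentration required for complete inhibition of growth.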

Take `COc1ccc(CCCC(=O)O)c(C)c1`: the TGI is more than 100 µM in assay [1]; 91.1 µM in assay [2]; more than 100 µM in [3]; more than 100 µM in [4]; more than 100 µM in assay [5]; more than 100 µM in [6]. For the same molecule, the TGI in assay [7], in assay [8], in [9] and in [10] was more than 100 µM each time.
On to `CCOC(=O)c1c(C)[nH]c(/C=C2\N=C(c3ccc[nH]3)C=C2OC)c1C`, for which the GI50 in [1] is 0.0321 µM; in [11] it was 0.0497 µM; in [8], 0.0442 µM; in assay [9], 0.0263 µM. For the same molecule, the TGI was 1.29 µM in [1], 1.18 µM in assay [11], 2.45 µM in assay [8] and 1.32 µM in assay [9].
For `NC(Cc1c[nH]c2ccccc12)C(=O)O` (centres undefined), the TGI in assay [12], in assay [2], in assay [13], in assay [3], in assay [4] and in [6] was more than 300 µM each time. Besides, the TGI is more than 300 µM in assay [14]; more than 300 µM in assay [7]; more than 300 µM in assay [11]; 196 µM in assay [15]; more than 300 µM in assay [16].
